Test results reported in patent publication US20250066388A1, “1,3,4,7-TETRAHYDRO-2H-PYRROLO[3',2':5,6]PYRIDO[2,3-B][1,4]OXAZEPINE BCL-2 INHIBITORS” (AbbVie Inc., priority 2022, published 2025).
Where “and” joins values, the source holds several entries; their conditions need not be identical. Equal entries are not always repeated. Where two headings read alike, the source gives them in different places.

What was measured:
[1] = target: Bcl-2 protein (Homo sapiens (Human), UniProt P10415); test: TR-FRET binding assay, Bcl-2; details: F-Bak peptide probe, GST-Bcl-2
Chain of Bcl-2 protein (P10415 other isoform, or with tags, fused parts or gaps): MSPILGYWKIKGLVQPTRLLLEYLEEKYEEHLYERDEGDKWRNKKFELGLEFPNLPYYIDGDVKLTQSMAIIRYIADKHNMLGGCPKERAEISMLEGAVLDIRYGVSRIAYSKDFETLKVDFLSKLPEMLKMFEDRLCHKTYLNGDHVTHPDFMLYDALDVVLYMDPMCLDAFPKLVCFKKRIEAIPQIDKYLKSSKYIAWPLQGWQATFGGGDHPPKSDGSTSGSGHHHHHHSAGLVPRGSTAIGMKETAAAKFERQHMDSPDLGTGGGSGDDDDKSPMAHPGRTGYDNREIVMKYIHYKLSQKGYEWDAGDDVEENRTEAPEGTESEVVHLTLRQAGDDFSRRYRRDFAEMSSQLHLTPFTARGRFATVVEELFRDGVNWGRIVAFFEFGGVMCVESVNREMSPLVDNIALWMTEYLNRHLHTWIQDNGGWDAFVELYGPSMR

[2] = target: Bcl-xL protein (Homo sapiens (Human), UniProt Q07817); test: TR-FRET binding assay, Bcl-xL; details: F-Bak peptide probe
Chain of Bcl-xL protein (Q07817 other isoform, or with tags, fused parts or gaps): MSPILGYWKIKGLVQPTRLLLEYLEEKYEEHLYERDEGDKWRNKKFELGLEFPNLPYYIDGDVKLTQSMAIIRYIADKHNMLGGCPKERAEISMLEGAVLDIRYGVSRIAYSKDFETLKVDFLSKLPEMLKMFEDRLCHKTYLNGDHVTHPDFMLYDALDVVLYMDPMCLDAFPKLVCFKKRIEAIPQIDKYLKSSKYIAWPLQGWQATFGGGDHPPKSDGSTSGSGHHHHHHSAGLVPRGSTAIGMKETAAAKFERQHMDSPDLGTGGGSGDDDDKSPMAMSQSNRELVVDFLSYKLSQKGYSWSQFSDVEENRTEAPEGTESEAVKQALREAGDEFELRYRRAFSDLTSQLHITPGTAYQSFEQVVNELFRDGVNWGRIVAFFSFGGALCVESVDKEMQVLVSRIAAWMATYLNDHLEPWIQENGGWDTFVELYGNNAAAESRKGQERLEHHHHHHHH

[3] = Bioavailability study: pharmacokinetics after single intravenous or oral dose in mouse; type: in vivo; details: for half-life: CD-1, mouse, plasma, 1 mg/kg
Method: Studies were conducted to evaluate the pharmacokinetic profiles of Example 25 herein and Example 2 in WO 2019/040550 after single intravenous or oral dose in mouse. CD-1 mice (male) were obtained from Charles River Laboratories (Wilmington, MA).
The pharmacokinetics of Example 25 herein and Example 2 in WO 2019/040550 were evaluated following single 1 mg/kg intravenous or oral doses in mouse. Example 25 herein and Example 2 in WO 2019/040550 were prepared as a solution in DMSO: Tween 80: PEG-400: Dextrose 5% in Water (5:5:20:70, v/v) for the IV and oral dose mouse studies. The intravenous dose was administered as a slow bolus to the penile vein under isoflurane anesthesia. The oral doses were administrated by gavage. Serial blood samples were obtained […], 0.25, 0.5, 1.0, 4, 6, 9, 12, 24, 32 and 48 hours post dosing and […]. Plasma was separated by centrifugation and stored frozen (<−15° C.) until analysis.
HPLC-MS/MS bioanalytical methods were utilized for the quantitation of Example 25 herein and Example 2 in WO 2019/040550 concentration in plasma. The analytical methods used protein precipitation to extract compound from plasma. All samples were combined with a minimum two volume equivalents of organic solvent containing internal standard, vortexed and then centrifuged to pellet the proteins. Supernatants were used for subsequent analysis by liquid chromatography-tandem mass spectrometry (LC-MS/MS). Studies involving quantitative analysis employed spiked standards in plasma that were processed simultaneously with the samples.
Analytes were separated using reverse phase chromatography on a C8 or C18 column prior to analysis on an API5500™ (or higher) mass spectrometer with a Turbo-Ion Spray source. Peak areas were determined using Sciex Analyst™ 1.6 (or higher) software or Sound Analytics DiscoveryQuant™ 2.0 (or higher) software. Actual concentrations (when required) were calculated by regression analysis of the peak area ratio (parent/internal standard) of the spiked standards versus concentrations.
Peak plasma concentrations (Cmax) and the time to peak plasma concentration (Tmax) were determined directly from the plasma concentration data for each animal. The compound plasma concentration data were submitted to multi-exponential curve fitting using WinNonlin software. The area under the plasma concentration-time curve from 0 to t hours after dosing (AUC0-t, t=time of the last measurable plasma concentration) was calculated using the linear trapezoidal rule. The residual area extrapolated to infinity, determined as the final measured plasma concentration (Ct) divided by the terminal plasma elimination rate constant (β), was added to the AUC0-t to produce the total area under the curve (AUC0-∞). The apparent total plasma clearance (CLp) was calculated by dividing the administered dose by the AUC0-∞. Half-life (t1/2) was determined with the following calculation: t1/2=ln (2)/elimination rate constant. The initial volume of distribution (Vc) was calculated as the dose divided by the extrapolated concentration at time=0 (C0). The volume of distribution at steady state, Vss, was estimated as a product of the total plasma clearance (CLp) and the mean residence time (MRT); the terminal-phase volume of distribution, Vβ, was derived from the total plasma clearance value (CLp) divided by the terminal plasma elimination rate constant (β). Oral bioavailability (F) was calculated as the dose-normalized AUC0-∞ (AUC0-∞/D) from the oral dose divided by the corresponding dose normalized AUC0-∞ from intravenous dosing.

[4] = IV (1 mg/kg), mouse plasma, individual mouse
[5] = PO (1 mg/kg), mouse plasma, individual mouse

CO[C@@H]1CC[C@@H](CNc2ccc(S(=O)(=O)NC(=O)c3ccc(N4CCN5CC6=C(c7ccc(Cl)cc7)CC(C)(C)C[C@H]6OCCCOC[C@@H]5C4)cc3N3CCCOc4nc5[nH]ccc5cc43)cc2[N+](=O)[O-])OC1 [Example 25, 4-((4aS,10aR)-14-(4-chlorophenyl)-12,12-dimethyl-1,2,4a,5,8,9,10a,11,13,15-decahydro-7H,12H-benzo[f]pyrazino[2,1-c][1,8]dioxa[4]azacycloundecin-3(4H)-yl)-2-(3,4-dihydro-2H-pyrrolo[3′,2′:5,6]pyrido[2,3-b][1,4]oxazepin-1(7H)-yl)-N-((4-((((2S,5R)-5-methoxytetrahydro-2H-pyran-2-yl)methyl)amino)-3-nitrophenyl)sulfonyl)benzamide]
Ki [1]: 0.273 nM | Ki [2]: 13.6 nM | AUC [3, 4]: 11200 ng·h/mL and 12900 ng·h/mL | C0 [3, 4]: 5020 ng/mL and 3470 ng/mL | CLP [3, 4]: 1.48 mL/min/kg | MRT [3, 4]: 9.8 h | VSS [3, 4]: 0.93 L/kg and 0.76 L/kg | Vβ [3, 4]: 0.95 L/kg and 1.0 L/kg and 0.90 L/kg | t1/2 [3, 4]: 7.9 h and 8.1 h | Vβ ([3]; IV (1 mg/kg), mouse plasma, mean): 0.96 L/kg | AUC [3, 5]: 4330 ng·h/mL and 4490 ng·h/mL | Cmax [3, 5]: 279 ng/mL and 274 ng/mL | half-life ([3]; male, iv, IV (1 mg/kg), individual mouse): 10 h | half-life ([3]; male, po, PO (1 mg/kg), harmonic mean): 8.7 h | half-life ([3]; male, po, PO (1 mg/kg), individual mouse): 8.7 h | MRT ([3]; male, CD-1, IV (1 mg/kg), mouse plasma, individual mouse, read-out: MRT): 10 h | clearance ([3]; male, CD-1, IV (1 mg/kg), mouse plasma, mean, read-out: CLP (converted)): 1.28 mL/min/kg | Tmax ([3]; male, CD-1, PO (1 mg/kg), mouse plasma, individual mouse): 4 h
